As a reminder, the cell viability is the share of living cells, or the viability signal relative to a control. As a reminder, the viability is a read-out of living cells in per cent, often relative to untreated cells.

One series deals with APP/PS1 transgenic mice. The series can be described thus: Morris water maze in APP/PS1 x Thy1-GFP mice. Type of series: in vivo. On the procedure:
Thy1-GFP mice are commonly used in neuroscience research. The fluorescence labeling of GFP facilitates convenient observation and tracking of specific cell types, especially neurons. APP/PS1 transgenic mice (an animal model of Alzheimer's disease) were crossed with Thy1-GFP mice. The crossed mice aged 5 months were intraperitoneally injected with a compound solution at a concentration of 2.5 mg/kg for 1 month continuously. Subsequently, the crossed mice aged 6 months were subjected to behavioral test (Morris water maze MWM experiment) to evaluate learning and memory abilities (as shown in FIG. 22).
Water maze: A water maze experimental apparatus is circular stainless steel with a diameter of 100 cm and a height of 50 cm, wherein a pool is equally divided into 4 quadrants according to the 4 orientations of east, south, west and north, a circular black hidden platform with a diameter of 9 cm and a height of 27 cm is placed in the center of the target quadrant. […] The movement trajectory of the mouse was synchronously recorded by the camera directly above the water pool, and analyzed by the EthovisionXT monitoring and analysis system. […] The mouse swam in the water for 60 s, and the percentage of time the mouse spent in the target platform quadrant was recorded, representing the learning and memory ability of the mouse.

A further series concerns primary neurons. The series can be described thus: CCK8 cell viability (toxicity) assay in primary neurons. The series is classed as cell-based, mouse. To be noted: 24 h, CCK8, three replicate wells. The source says:
(§1) The CCK8 cell viability assay (CCK8) was adopted. Its principle is mainly based on the reduction reaction of WST-8 (chemical name: 2-(2-methoxy-4-nitrophenyl)-3-(4-nitrophenyl)-5-(2,4-disulfophenyl)-2H-tetrazolium monosodium salt). In the presence of living cells, WST-8 can be reduced by dehydrogenases in mitochondria to generate a highly water-soluble orange-yellow formazan product. The color intensity is directly proportional to the number of living cells, wherein the quantity of living cells can be indirectly reflected by measuring the absorbance of formazan products (typically at a wavelength of 450 nm). The CCK-8 assay is widely used in cell proliferation assay, cytotoxicity assay and tumor drug sensitivity test.
(§2) Primary hippocampal neuron culture: After ICR fetal mice at 18-21 days of gestation (E18-E21) were anesthetized, the fetal mice were dissected in a clean area and immersed in 75% ethanol for 1-2 min. The mouse head was taken out, the surface skull was removed with micro-scissors, and the brain tissue was transferred to an anatomical dissociation solution. Under a microscope, blood vessels and meninges were removed, hippocampal tissue was isolated, the extracted hippocampal tissue was placed in a 3.5 cm dish containing the anatomical dissociation solution, and the hippocampal tissue was cut into small fragments using micro-scissors. The minced hippocampal tissue was transferred to a 7 ml EP tube using a pipette gun. The hippocampal tissue hereinabove was centrifuged at 1000 rpm for 3-5 min, and the anatomical separation solution was discarded. 0.5-1 ml of papain digestion solution was added to the EP tube hereinabove, and the EP tube was placed in a 37°C incubator for 30 min. 300 µL of Trituration buffer 300 (DNase) and 5 mL of complete medium were added, and the hippocampal tissue was gently pipetted more than 10 times. The cell suspension was allowed to stand for 3 min, and 3-4 ml of supernatant was gently aspirated into a 15 ml tube using a pipette. 3-4 ml of complete medium was added again, and the hippocampal tissue was gently pipetted more than 10 times. Step 8 was repeated, and 3-4 ml of supernatant was transferred to the same 15 ml tube again. The previous step was repeated again. The collected supernatant was centrifuged at 1000 rpm, the supernatant was discarded, and 5 ml of complete medium was added. The mixture was gently pipetted and suspended, and then centrifuged again at 1000 rpm for 5 min. The complete medium was added to resuspend the cells, and then a portion of the cells was aspirated for counting. Generally, when neuronal cells were planted in a 24-well plate, the concentration of the cell suspension was generally 2×10^5/ml, and 500 µl of cells is inoculated per well. The resuspended neuron cells with a diluted ratio were seeded onto a glass slide treated with PDL, then the glass slide was placed in a 37°C incubator for 10 min, an appropriate amount of complete medium was added, and then the culture is continued in the incubator.

Assay in series [1]: as above
The series is classed as cell-based, mouse. The settings on record: ICR, mouse, primary hippocampal neurons, 24 h, CCK8, three replicate wells.
Description: as §1, §2

Series [2] in a line: CCK8 cell viability (toxicity) assay in 293T cell line. Type of series: cell-based. The settings on record: human, 293T cells, 293T, 24 h, CCK8, three replicate wells.
Description: as §1
In in vitro experiments, the compound stock solution was prepared into 10 mM with DMSO and diluted with a culture medium before use. The 293T cell line was used for preliminary concentration screening of the compound, wherein concentration gradients were set as follows: 5 µmol, 10 µmol, 20 µmol, 40 µmol, 80 µmol and 160 µmol. After the cells were treated with the compound for 24 h, the CCK8 detection kit was used, wherein the cell viability was calculated based on the absorbance values detected by a microplate reader. Data processing was performed using GraphPad Prism software to plot the IC50 curve.

Each structure is given as a SMILES string. “And” between values parts separate entries of the source, which are not always exact repeats. Equal values may be shown once.

With `CCOC(=O)c1[nH]c(C)c(CCC(=O)N2CCCC(C(=O)NCCN3CCCCCC3)C2)c1C` (stereo not drawn) [compound of Formula I, ETHYL4-[3-(3-{[2-(AZEPAN-1-YL)ETHYL]CARBAMOYL}PIPERIDIN-1-YL)-3-OXOPROPYL]-3, 5-DIMETHYL-1H-PYRROLE-2-CARBOXYLATE], the “time percentage in the platform quadrant” value with APP/PS1 transgenic mice (APP/PS1+ intervention, IP 2.5 mg/kg for 1 month, day 7 spatial exploration, individual animals, 2.5 mg/kg) is 12.17% and 26.78% and 27.89% and 19.335% and 31.945% and 22% and 29.11%. Besides, the “time percentage of mice in the platform quadrant” value in the series with APP/PS1 transgenic mice (after compound intervention vs APP/PS1 mice) was “increased”. In addition, the cell viability in the series with primary neurons (1.25 µmol) was 88.68% and 77.1%; in the series on primary neurons (5 µmol), 77.35% and 75.31%; in the series on primary neurons (10 µmol) it was 58.82% and 65.03%; in the series on primary neurons (20 µmol), 40.38% and 35.57%; in the series on primary neurons (40 µmol) it was 23.14% and 48.19% and 36.68%; with primary neurons (160 µmol), 3.329% and 5.244%. Besides, the viability at 24 h, 1.25 µmol in series [1] (1.25 µmol) amounted to 94.5%. For the same compound, the values for the viability at 24 h, 5 µmol in series [1] (5 µmol) and in series [2] (5 µmol) were 70.7% and 96.6%, respectively. In addition, the viability at 24 h, 10 µmol in series [1] (10 µmol) was 51.8%; in series [2] (10 µmol) it was 109%. The viability at 24 h, 20 µmol in series [1] (20 µmol) was 37.1%; in series [2] (20 µmol), 93.1%. Also, the results for the viability at 24 h, 80 µmol in series [1] (80 µmol) and in series [2] (80 µmol) were 4.02% and 22.7%, respectively. Also, the figures for the viability at 24 h, 160 µmol in series [1] (160 µmol) and in series [2] (160 µmol) were 4.65% and 27.2%, respectively. In addition, the viability at 24 h, 2.5 µmol in series [1] was 90.6%. In addition, the viability at 24 h, 40 µmol in series [2] (40 µmol) was 86.7%.

For the origin of these results see EP4818330A1, “PHARMACEUTICAL PREPARATION FOR DIAGNOSING AND TREATING ALZHEIMER'S DISEASE” (Shanghai East Hospital Tongji University, priority 2023, dated 2025).
